Assay [1] concerns the target T1, EP1 receptors (Homo sapiens, UniProt P34995).
T1 sequence (P34995 1-402): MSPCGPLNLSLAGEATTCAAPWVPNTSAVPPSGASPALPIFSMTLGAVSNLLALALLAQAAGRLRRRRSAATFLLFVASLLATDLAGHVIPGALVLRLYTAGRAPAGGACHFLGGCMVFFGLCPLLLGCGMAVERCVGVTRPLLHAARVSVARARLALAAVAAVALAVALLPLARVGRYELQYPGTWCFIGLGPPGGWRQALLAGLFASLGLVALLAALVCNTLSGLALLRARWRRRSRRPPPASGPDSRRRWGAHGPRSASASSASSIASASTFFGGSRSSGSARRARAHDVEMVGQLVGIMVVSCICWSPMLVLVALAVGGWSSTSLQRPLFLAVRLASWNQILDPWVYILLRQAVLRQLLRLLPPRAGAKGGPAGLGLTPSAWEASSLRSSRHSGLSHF
Nature of the assay: human EP1 calcium mobilisation assay (CHO-K1 cells, FLIPR, PGE2). The format is cell-based. Also noted: expressed in transfected cells; host or cells: CHO-K1 cells, pCIN vector. The conditions noted are these: free bases or sodium salts; averages of a number of experiments; read-out: functional pKi value, human EP1 calcium mobilisation assay (converted). As to the method: Briefly, the antagonist properties of compounds are assessed by their ability to inhibit the mobilisation of intracellular calcium ([Ca^2+]i) in response to activation of EP1 or EP3 receptors by the natural agonist hormone prostaglandin E2 (PGE2). Increasing concentrations of antagonist reduce the amount of calcium that a given concentration of PGE2 can mobilise. The net effect is to displace the PGE2 concentration-effect curve to higher concentrations of PGE2. The amount of calcium produced is assessed using a calcium-sensitive fluorescent dye such as Fluo-4, AM and a suitable instrument such as a Fluorimetric Imaging Plate Reader (FLIPR). Increasing amounts of [Ca^2+]i produced by receptor activation increase the amount of fluorescence produced by the dye and give rise to an increasing signal. The signal may be detected using the FLIPR instrument and the data generated may be analysed with suitable curve-fitting software.
The human EP1 or EP3 calcium mobilisation assay (hereafter referred to as ‘the calcium assay’) utilises Chinese hamster ovary-K1 (CHO-K1) cells into which a stable (pCIN; BioTechniques 20 (1996): 102-110) vector containing either EP1 or EP3 cDNA has previously been transfected. Cells are cultured in suitable flasks containing culture medium such as DMEM:F-12 supplemented with 10% v/v foetal calf serum, 2 mM L-glutamine, 0.25 mg/ml geneticin, 100 μM flurbiprofen and 10 µg/ml puromycin. For assay, cells are harvested using a proprietary reagent that dislodges cells such as Versene. Cells are re-suspended in a suitable quantity of fresh culture media for introduction into a 384-well plate. Following incubation for 24 hours at 37° C. the culture media is replaced with a medium containing Fluo-4 and the detergent pluronic acid, and a further incubation takes place. Concentrations of compounds are then added to the plate in order to construct concentration-effect curves. This may be performed on the FLIPR in order to assess the agonist properties of the compounds. Concentrations of PGE2 are then added to the plate in order to assess the antagonist properties of the compounds. The data so generated may be analysed by means of a computerised curve-fitting routine. The concentration of compound that elicits a half-maximal inhibition of the calcium mobilisation induced by PGE2 (pIC50) may then be estimated.
In general terms: Calcium assays in cells follow changes in intracellular calcium, usually with a dye or a luminescent sensor.

Assay [2] addresses T1, EP1 receptors. Nature of the assay: Binding assay for the human prostanoid EP1 receptor (competition with [3H]-PGE2). Also noted: expressed in transfected cells; host or cells: CHO-K1 cells, membrane fraction. The conditions noted are these: [3H]-PGE2 competition; averages of a number of experiments; read-out: pIC50 value, binding assay for the human prostanoid EP1 receptor (converted). In a few lines: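 Membranes from CHO-K1 cells stably expressing human EP1 incubated with compounds and [3H]-PGE2 (3 nM final) for 30 min at 30° C in MES buffer with EDTA and MgCl2, pH 6. Bound radioactivity measured after filtration; IC50 from nonlinear fit of specific binding inhibition.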

Each structure is given as a SMILES string. Counter-ions that a name gives are not always drawn.

For `O=C(NS(=O)(=O)c1ccccc1)c1csc(Cc2cc(Cl)ccc2OCc2ccc(Cl)cc2F)n1` [Example 105, 2-[(5-Chloro-2-{[(4-chloro-2-fluorophenyl)methyl]-oxy}phenyl)methyl]-N-(phenylsulfonyl)-1,3-thiazole-4-carboxamide], at EP1 receptors [1], the Ki was below 1000 nM. For the same compound, the IC50 on EP1 receptors [2] was at most 31.6 nM.
For `O=C(NS(=O)(=O)c1ccccc1)c1csc(Cc2cc(Cl)ccc2OCc2cc(F)c(F)cc2F)n1` [Example 106, 2-[(5-Chloro-2-{[(2,4,5-trifluorophenyl)methyl]oxy}phenyl)methyl]-N-(phenylsulfonyl)-1,3-thiazole-4-carboxamide], in that order: at most 31.6 nM and at most 31.6 nM.
For `CS(=O)(=O)NC(=O)c1csc(Cc2cc(Cl)ccc2OCc2ccc(F)cc2)n1` [Example 107, 2-[(5-Chloro-2-{[(4-fluorophenyl)methyl]-oxy)phenyl)methyl]-N-(methylsulfonyl)-1,3-thiazole-4-carboxamide], in that order: below 1000 nM and at most 31.6 nM.
Consider `Cc1noc(C)c1S(=O)(=O)NC(=O)c1csc(Cc2cc(Cl)ccc2OCc2ccccc2)n1` [Example 108, 2-({5-Chloro-2-[(phenylmethyl)oxy]-phenyl}methyl)-N-[(3,5-dimethyl-4-isoxazolyl)sulfonyl]-1,3-thiazole-4-carboxamide], for which the Ki on EP1 receptors [1] is at most 31.6 nM. Also, the IC50 at EP1 receptors [2] is at most 31.6 nM.
As to `CC(C)(C)OC(=O)Nc1csc(Cc2cc(Cl)ccc2OCc2ccccc2)n1` [Example 110, 1,1-Dimethylethyl [2-({5-chloro-2-[(phenylmethyl)oxy]phenyl}methyl)-1,3-thiazol-4-yl]carbamate], on EP1 receptors [1], the Ki is above 1000 nM. At EP1 receptors [2], the IC50 is at most 1000 nM.
With `CC(C)COc1ccc(Cl)cc1Cc1nc(NC(=O)OC(C)(C)C)cs1` [Example 111, 1,1-Dimethylethyl [2-({5-chloro-2-[(2-methylpropyl)oxy]phenyl}methyl)-1,3-thiazol-4-yl]carbamate], the Ki on EP1 receptors [1] is below 1000 nM. For the same compound, the IC50 at EP1 receptors [2] is at most 1000 nM.
Take `O=C(Nc1csc(Cc2cc(Cl)ccc2OCc2ccccc2)n1)c1ccc(CO)cc1` [Example 112, N-[2-({5-chloro-2-[(phenylmethyl)oxy]phenyl}methyl)-1,3-thiazol-4-yl]-4-(hydroxymethyl)benzamide]: on EP1 receptors [1], the Ki is above 1000 nM. The IC50 at EP1 receptors [2] was at most 1000 nM.
For `O=C(Nc1csc(Cc2cc(Cl)ccc2OCc2ccccc2)n1)c1ccc(CN2CCCCC2)cc1` [Example 113, N-[2-({5-Chloro-2-[(phenylmethyl)oxy]phenyl}methyl)-1,3-thiazol-4-yl]-4-(1-piperidinylmethyl)benzamide], in that order: below 1000 nM and at most 1000 nM.
For `CN1CCN(Cc2ccc(C(=O)Nc3csc(Cc4cc(Cl)ccc4OCc4ccccc4)n3)cc2)CC1` [Example 114, N-[2-({5-chloro-2-[(phenylmethyl)oxy]-phenyl}methyl)-1,3-thiazol-4-yl]-4-[(4-methyl-1-piperazinyl)methyl]-benzamide], in that order: below 1000 nM and at most 1000 nM.
For `CN1CCN(CCc2ccc3nc(-c4csc(Cc5cc(Cl)ccc5OCc5ccccc5)n4)[nH]c3c2)CC1` [Example 115, 2-[2-({5-chloro-2-[(phenylmethyl)oxy]-phenyl}methyl)-1,3-thiazol-4-yl]-5-[2-(4-methyl-1-piperazinyl)ethyl]-1H-benzimidazole], in that order: below 1000 nM and at most 31.6 nM.
Consider `CC(C)COc1ccc(Cl)cc1Cc1nc(-c2nc3ccc(CCN(C)C)cc3[nH]2)cs1` [Example 116, (2-{2-[2-({5-Chloro-2-[(2-methylpropyl)oxy]-phenyl}methyl)-1,3-thiazol-4-yl]-1H-benzimidazol-5-yl}ethyl)dimethylamine], for which the Ki at EP1 receptors [1] is below 1000 nM. Further, the IC50 on EP1 receptors [2] is at most 31.6 nM.
For `CC(C)COc1ccc(Cl)cc1Cc1nc(-c2nc3ccc(CCN4CCN(C)CC4)cc3[nH]2)cs1` [Example 117, 2-[2-({5-Chloro-2-[(2-methylpropyl)oxy]phenyl}-methyl)-1,3-thiazol-4-yl]-5-(2-(4-methyl-1-piperazinyl)ethyl]-1H-benzimidazole], in that order: below 1000 nM and at most 31.6 nM.
For `CN(C)Cc1ccc(NC(=O)c2csc(Cc3cc(Cl)ccc3OCc3ccccc3)n2)cc1` [Example 118, 2-({5-Chloro-2-[(phenylmethyl)oxy]phenyl}methyl)-N-{4-[(dimethylamino)methyl]phenyl}-1,3-thiazole-4-carboxamide hydrochloride], in that order: above 1000 nM and at most 1000 nM.
As for `O=C(Nc1ccc(CN2CCCC2)cc1)c1csc(Cc2cc(Cl)ccc2OCc2ccccc2)n1` [Example 119, 2-({5-Chloro-2-[(phenylmethyl)oxy]phenyl}-methyl)-N-[4-(1-pyrrolidinylmethyl)phenyl]-1,3-thiazole-4-carboxamidehydrochloride], the Ki at EP1 receptors [1] was above 1000 nM. In addition, the IC50 at EP1 receptors [2] is at most 1000 nM.
For `O=C(Nc1ccc(CN2CCOCC2)cc1)c1csc(Cc2cc(Cl)ccc2OCc2ccccc2)n1` [Example 120, 2-({5-Chloro-2-[(phenylmethyl)oxy]phenyl}-methyl)-N-[4-(4-morpholinylmethyl)phenyl]-1,3-thiazole-4-carboxamidehydrochloride], in that order: above 1000 nM and at most 1000 nM.
For `O=C(Nc1ccc(CN2CCCCC2)cc1)c1csc(Cc2cc(Cl)ccc2OCc2ccccc2)n1` [Example 121, 2-({5-Chloro-2-[(phenylmethyl)oxy]phenyl}-methyl)-N-[4-(1-piperidinylmethyl)phenyl]-1,3-thiazole-4-carboxamidehydrochloride], the Ki at EP1 receptors [1] was above 1000 nM. Moreover, the IC50 on EP1 receptors [2] was at most 1000 nM.
For `CC(C)COc1ccc(Cl)cc1Cc1nc(-c2nc3ccc(CN(C)C)cc3[nH]2)cs1` [Example 124, ({2-[2-({5-Chloro-2-[(2-methylpropyl)oxy]phenyl}-methyl)-1,3-thiazol-4-yl]-1H-benzimidazol-5-yl}methyl)dimethylaminehydrochloride], in that order: below 1000 nM and at most 31.6 nM.
For `CC(C)COc1ccc(Cl)cc1Cc1nc(-c2nc3ccc(CN4CCOCC4)cc3[nH]2)cs1` [Example 125, 2-[2-({5-Chloro-2-[(2-methylpropyl)oxy]phenyl}-methyl)-1,3-thiazol-4-yl]-5-(4-morpholinylmethyl)-1H-benzimidazolehydrochloride], in that order: below 1000 nM and at most 31.6 nM.
For `CNCc1ccc2nc(-c3csc(Cc4cc(Cl)ccc4OCC(C)C)n3)[nH]c2c1` [Example 126, ({2-[2-({5-Chloro-2-[(2-methylpropyl)oxy]phenyl}-methyl)-1,3-thiazol-4-yl]-1H-benzimidazol-5-yl}methyl)methylaminehydrochloride], in that order: below 1000 nM and at most 31.6 nM.
As to `CC(=O)Nc1csc(Cc2cc(Cl)ccc2OCc2ccccc2)n1` [Example 127, N-[2-({5-Chloro-2-[(phenylmethyl)oxy]phenyl}methyl)-1,3-thiazol-4-yl]acetamide], the Ki at EP1 receptors [1] was above 1000 nM. For the same compound, the IC50 at EP1 receptors [2] is at most 1000 nM.
Take `CCC(=O)Nc1csc(Cc2cc(Cl)ccc2OCc2ccccc2)n1` [Example 128]: at EP1 receptors [1], the Ki is above 1000 nM. Further, the IC50 at EP1 receptors [2] is at most 1000 nM.
For `CC(C)C(=O)Nc1csc(Cc2cc(Cl)ccc2OCc2ccccc2)n1` [Example 129, N-[2-({5-Chloro-2-[(phenylmethyl)oxy]phenyl}methyl)-1,3-thiazol-4-yl]-2-methylpropanamide], in that order: below 1000 nM and at most 1000 nM.

These data come from patent publication US20080207708A1, “Oxazole and Thiazole Compounds and Their Use in the Treatment of Pge2 Mediated Disorders” (GLAXO GROUP LIMITED, priority 2005, published 2008).
